Data on eight substances can be found in US10287581B2, “Cell penetrating peptides for intracellular delivery of molecules” (AADIGEN, LLC, priority 2011, dated 2019).

Read-outs that look alike come from different tables or passages of the source.

Data set [1] has as its target SS-DNA: single-stranded DNA. The data set is described as follows: Binding of single-stranded DNA to VEPEP-6 peptides by fluorescence spectroscopy. As to the method: (§1) FIG. 2: Binding of nucleic acid to VEPEP-6a as monitored by TRP-intrinsic fluorescence spectroscopy. Dissociation constants were calculated from data fitting. Nucleic acids used: double stranded DNA (45/35 mer), siRNA (19/19 or 25/25) and single stranded DNA (19 or 36 mer)
(§2) VEPEP-6 peptide form stable complexes with siRNA, single stranded and double stranded oligonucleotides. The binding of cargos to VEPEP-6 was monitored by fluorescence spectroscopy using the both intrinsic Trp group of VEPEP-6 (3 to 5 Trp-residues) and extrinsic fluorescently labeled cargoes (using Cy3, Cy5 or FITC). Fluorescence experiments were performed on a PTI spectrofluorimeter at 25° C. in a NaCl 154 mM buffer. Intrinsic Trp-fluorescence of VEPEP-6 was excited at 290 nm and emission spectrum was recorded between 310 and 400 nm, with a spectral band-pass of 2 and 8 nm for excitation and emission, respectively. FITC-fluorescence of labelled-siRNA or DNA was excited at 492 nm and emission recorded between 500 and 580 nm. For VEPEP-6/siRNA interaction, 0.5 μM of FITC-labelled siRNA was titrated by increasing concentrations of peptide. All measurements were corrected for the dilution and curve fitting were performed by using Grafit software (Erithacus). Curve fitting reveal that VEPEP-6 strongly binds the different cargoes with dissociation constant in the nanomolar range (Table 1 and FIG. 2).
(§3) Binding of nucleic acid to ST-VEPEP-6aa was monitored by fluorescence spectroscopy using both TRP-intrinsic and fluorescently labelled nucleic acids. Dissociation constants were calculated from data fitting. Nucleic acids used were double stranded siRNA (19/19 or 25/25) and single stranded DNA (36 mer).

A further data set addresses siRNA. Description: Binding of siRNA to VEPEP-6 peptides by fluorescence spectroscopy. The procedure: as §1, §2, §3
Data set [2] concerns DD-DNA: double-stranded DNA. Description: Binding of double-stranded DNA to VEPEP-6 peptides by fluorescence spectroscopy. The settings on record: cargo DD-DNA. The procedure: as §1, §2
The nature of data set [3]: Binding of AZT to VEPEP-6 by quenching of tryptophan fluorescence. The settings on record: cargo AZT. As to the method:
(§4) FIG. 3: Binding of small hydrophobic molecules to VEPEP-6 as monitored by fluorescence spectroscopy. The binding of Doxorubicin, AZT and Porphyrin to VEPEP-6 was monitored by following the quenching of tryptophan-intrinsic VEPEP-6 fluorescence and that of fluoresceine-labelled-Guanosine (FAM-G) by monitoring FAM-fluorescence. Dissociation constants were calculated from data fitting.
(§5) VEPEP-6 peptides also form stable particles with small aromatic and/or hydrophobic molecules including daunomycin, Paclitaxel, doxorubicin, AZT, porphyrin, FAM-G or fluorescent dyes (FIG. 3). The dissociation constant for small hydrophobic molecule ranges between 0.03 to 4 μM, depending on the nature of the dyes and of the peptides.

Data set [4] can be described thus: Binding of porphyrin to VEPEP-6 by quenching of tryptophan fluorescence. The settings on record: cargo porphyrin. As to the method:
as §4, §5

Data set [5] is described as follows: Binding of FAM-guanosine to VEPEP-6 by FAM fluorescence. To be noted: cargo FAM-guanosine. As to the method: as §4
FIGS. 8A and 8B: (8A) Binding of small hydrophobic fluorescent molecules (SFM) to VEPEP-6 as monitored by fluorescence spectroscopy. In the present case, a fluorescently labeled nucleotide (fluorescein-labeled-Guanine) was used. Dissociation constants were calculated from data fitting. (8B) Effect of VEPEP-6 mediated doxorubicin on cancer cell viability. Dose responses of free (white bars) and VEPEP-6 mediated (grey bars) doxorubicin have been evaluated on the viability of U2OS and MCF7 cancer cells.
as §5

A short description of data set [6]: Binding of doxorubicin to VEPEP-6 by quenching of tryptophan fluorescence. To be noted: cargo Doxorubicin. As to the method:
as §4, §5

Another data set has as its system cyclin B1. Description: Cyclin B1 silencing at protein (Western blotting) and mRNA (Quantigen) level. The data set is classed as cell-based, Human. To be noted: 200 nM siRNA complexed with VEPEP-6 at a 1/20 ratio. The procedure: FIGS. 6A-6C: VEPEP-6 dose response of Cyclin B1 silencing at the protein and mRNA levels on Hela (6A) and HS68 (6B) cells. Stock solution of VEPEP-6/siRNA ([…]) particles were prepared at a molar ratio of 1/20 (siRNA/VEPEP-6), and lower concentrations (from 200 nM to 0.125 nM) were obtained by serial dilution of the stock solution in PBS. HeLa (Panel A) and HS-68 (Panel B) cells (60% confluency) were overlaid with preformed complexes for 30 min, then fresh DMEM supplemented with 10% FCS was added directly to the cells, which were then returned to the incubator for 24 hrs. Cyclin B1 protein levels were determined by Western Blotting using Cdk2 as a control for quantification (white bars). Cyclin B1 mRNA levels were measured 12 hrs after transfection using Quantigen technology (black bars). Mismatched Cyc-B3 siRNA associated with VEPEP-6 (200 nM) and empty VEPEP-6 particles (20 μM) were used as a control. 6C: Dose-response of G2-arrest associated with Cyclin B1 silencing. HeLa (black bars) and HS68 (white bars) cells were treated with increasing concentrations of VEPEP-6/siRNA-Cyc-B1 from 0.25 nM to 20 nM. The cell cycle status was evaluated by FACS analysis. […]
Cyclin B1 mRNA and protein levels were determined 12 and 24 hrs following transduction, using Quantigen (Panomics Inc.) and Western blotting, respectively. […]

[7] abbreviates: cargo siRNA, 25° C., NaCl 154 mM buffer, read-out: Kd.

On to “Ac-X1LFLARWRsLLRSsLWRLLWK-cysteamide [ST-VEPEP-6aa]”, for which the Kd worked out at 4 nM in data set [1] (single stranded nucleic acid (DNA 36 mer), read-out: dissociation constant) and 7 nM on siRNA (double stranded nucleic acid (siRNA 19/19 or 25/25), read-out: dissociation constant).

“Ac-[βA/S]LFRALWRLLR[S/T]LWRLLW[K/R]-cysteamide [VEPEP-6a]”: the Binding result in data set [1] (cargo SS-DNA) is on record as “yes”; in data set [2] it was “yes”; in data set [3] it was “no”; in data set [4], “yes”; in the data set on siRNA (cargo siRNA) it was “yes”; in data set [5] it was “no”. For the same substance, the Binding entry in data set [6] is “yes”. For the same substance, the Kd is 50 to 100 nM in data set [1] (cargo SS-DNA, read-out: Kd); 200 nM in data set [2]; 4000 nM in data set [4]; 10 to 20 nM on siRNA (setting [7]); 1000 nM in data set [6].

Regarding “Ac-[βA/S]LWRALWRLWR[S/T]LWRLLW[K/R]A-cysteamide [VEPEP-6b]”, the Binding result was “yes” in data set [1] (cargo SS-DNA); “yes” in data set [2]; “no” in data set [3]; “yes” in data set [4]; “yes” in the data set on siRNA (cargo siRNA); “no” in data set [5]. For the same substance, in data set [6], the Binding result was “yes”. In addition, the Kd in data set [1] (cargo SS-DNA, read-out: Kd) was 50 to 100 nM; in data set [2], 200 nM; in data set [4], 5000 nM; at siRNA (setting [7]) it was 10 to 20 nM; in data set [6], 700 nM.

Turning to “Ac-[βA/S]LWRALWRLWR[S/T]LWRLWR[K/R]A-cysteamide [VEPEP-6d]”, the Binding result (in data set [1] (cargo SS-DNA); in data set [2]; in data set [3]; in data set [4]; in the data set with siRNA (cargo siRNA); in data set [5]) was “yes” each time. Further, the Binding result in data set [6] is listed as “yes”. Besides, the Kd in data set [1] (cargo SS-DNA, read-out: Kd) was 50 to 100 nM; in data set [2] it was 200 nM; in data set [3] it was 100 nM; in data set [4], 500 nM; on siRNA (setting [7]), 10 to 20 nM; in data set [5], 800 nM. The substance also displayed a Kd in data set [6] of 500 nM.

On to “Ac-[βA/S]LWRALWRL[L/C/I]RNLWRLLW[K/R]A-cysteamide [VEPEP-6f]”, for which the Binding entry (in data set [1] (cargo SS-DNA); in data set [2]; in data set [3]; in data set [4]; in the data set with siRNA (cargo siRNA); in data set [5]) was “yes” each time. The Binding result in data set [6] is “yes”. Moreover, the Kd is 50 to 100 nM in data set [1] (cargo SS-DNA, read-out: Kd); 200 nM in data set [2]; 2400 nM in data set [3]; 200 nM in data set [4]; 10 to 20 nM on siRNA (setting [7]); 2800 nM in data set [5]. This substance also returned a Kd in data set [6] of 200 nM.

Regarding “Ac-[βA/S]LWRALWRL[L/C/I]R[S/T]LWRLWR[K/R]A-cysteamide [VEPEP-6c]”, the Binding result (in data set [1] (cargo SS-DNA); in data set [2]; in data set [3]; in data set [4]; with siRNA (cargo siRNA); in data set [5]) was “yes” throughout. For the same substance, the Binding result in data set [6] is listed as “yes”. The Kd was 50 to 100 nM in data set [1] (cargo SS-DNA, read-out: Kd); 200 nM in data set [2]; 300 nM in data set [3]; 1200 nM in data set [4]; 10 to 20 nM at siRNA (setting [7]); 4000 nM in data set [5]. This substance also showed a Kd in data set [6] of 30 nM.

With “Ac-[βA/S]LWRALWRL[L/I]RALWRLLW[K/R]A-cysteamide [VEPEP-6e]”, the Binding entry (in data set [1] (cargo SS-DNA); in data set [2]; in data set [3]; in data set [4]; in the data set with siRNA (cargo siRNA); in data set [5]) was “yes” each time. Also, the Binding entry in data set [6] was “yes”. For the same substance, the Kd was 50 to 100 nM in data set [1] (cargo SS-DNA, read-out: Kd); 200 nM in data set [2]; 900 nM in data set [3]; 200 nM in data set [4]; 10 to 20 nM at siRNA (setting [7]); 2300 nM in data set [5]. In addition, the Kd in data set [6] worked out at 500 nM.

Consider “si-GAPDH: unrelated siRNA targeting GAPDH, SEQ ID No: 21/22 (chain 1 CAUCAUCCCUGCCUCUACUTT; chain 2 AGUAGAGGCAGGGAUGAUG; chemistry not given here)”, for which the “effect on cyclin B1 levels and cell cycle progression” value with cyclin B1 was “no effect”.
